# Results as given in article PMC10408569, “Recruitment of hexahydroquinoline as anticancer scaffold targeting inhibition of wild and mutants EGFR (EGFR^WT, EGFR^T790M, and EGFR^L858R)” (Journal of Enzyme Inhibition and Medicinal Chemistry, 2023).
# Legend:
# Test in all cases: NCI-60 anticancer screening (SRB)
# Format in all cases: cell-based
# [1] = system: U251; details: Homo sapiens, U-251; U251, CNS cancer; one dose 10 μM; read-out: Growth Inhibition Percentage (GI %)
# [2] = system: K-562; details: Homo sapiens, K562; K-562, leukemia; one dose 10 μM; read-out: Growth Inhibition Percentage (GI %)
# [3] = system: RPMI-8226; details: Homo sapiens; RPMI-8226, leukemia; one dose 10 μM; read-out: Growth Inhibition Percentage (GI %)
# [4] = system: HCT-116; details: Homo sapiens; HCT-116, colon cancer; one dose 10 μM; read-out: Growth Inhibition Percentage (GI %)
# [5] = system: NCI-H226; details: Homo sapiens; NCI-H226, NSC lung cancer; one dose 10 μM; read-out: Growth Inhibition Percentage (GI %)
# [6] = system: SR; details: Homo sapiens, leukemia, one dose 10 μM, read-out: Growth Inhibition Percentage (GI %)
# [7] = system: OVCAR-8; details: Homo sapiens; OVCAR-8, ovarian cancer; one dose 10 μM; read-out: Growth Inhibition Percentage (GI %)
# [8] = system: MDA-MB-468; details: Homo sapiens; MDA-MB-468, breast cancer; one dose 10 μM; read-out: Growth Inhibition Percentage (GI %)
# [9] = system: MALME-3M; details: Homo sapiens, melanoma, one dose 10 μM, read-out: Growth Inhibition Percentage (GI %)
# [10] = system: UACC-257; details: Homo sapiens; UACC-257, melanoma; one dose 10 μM; read-out: Growth Inhibition Percentage (GI %)
# [11] = system: SF-539; details: Homo sapiens; SF-539, CNS cancer; one dose 10 μM; read-out: Growth Inhibition Percentage (GI %)
# [12] = system: SNB-75; details: Homo sapiens; SNB-75, CNS cancer; one dose 10 μM; read-out: Growth Inhibition Percentage (GI %)
# [13] = system: EKVX; details: Homo sapiens, NSC lung cancer, one dose 10 μM, read-out: Growth Inhibition Percentage (GI %)
# [14] = system: SK-OV-3; details: Homo sapiens; SK-OV-3, ovarian cancer; one dose 10 μM; read-out: Growth Inhibition Percentage (GI %)
# [15] = system: PC-3; details: Homo sapiens; PC-3, prostate cancer; one dose 10 μM; read-out: Growth Inhibition Percentage (GI %)
# [16] = system: IGROV1; details: Homo sapiens, IGROV-1; IGROV1, ovarian cancer; one dose 10 μM; read-out: Growth Inhibition Percentage (GI %)
# [17] = system: CCRF-CEM; details: Homo sapiens, leukemia, one dose 10 μM, read-out: Growth Inhibition Percentage (GI %)
# [18] = system: SNB-19; details: Homo sapiens; SNB-19, CNS cancer; one dose 10 μM; read-out: Growth Inhibition Percentage (GI %)
# [19] = system: SF-268; details: Homo sapiens; SF-268, CNS cancer; one dose 10 μM; read-out: Growth Inhibition Percentage (GI %)
# [20] = system: OVCAR-5; details: Homo sapiens; OVCAR-5, ovarian cancer; one dose 10 μM; read-out: Growth Inhibition Percentage (GI %)
# [21] = system: SF-295; details: Homo sapiens; SF-295, CNS cancer; one dose 10 μM; read-out: Growth Inhibition Percentage (GI %)
# [22] = system: ACHN; details: Homo sapiens, renal cancer, one dose 10 μM, read-out: Growth Inhibition Percentage (GI %)
# [23] = system: HCT-15; details: Homo sapiens; HCT-15, colon cancer; one dose 10 μM; read-out: Growth Inhibition Percentage (GI %)
# [24] = system: MDA-MB-435; details: Homo sapiens; MDA-MB-435, melanoma; one dose 10 μM; read-out: Growth Inhibition Percentage (GI %)
# [25] = system: HOP-92; details: Homo sapiens; HOP-92, NSC lung cancer; one dose 10 μM; read-out: Growth Inhibition Percentage (GI %)
# [26] = system: DU-145; details: Homo sapiens; DU-145, prostate cancer; one dose 10 μM; read-out: Growth Inhibition Percentage (GI %)
# [27] = system: A549/ATCC; details: Homo sapiens; A549/ATCC, NSC lung cancer; one dose 10 μM; read-out: Growth Inhibition Percentage (GI %)
# [28] = system: SK-MEL-28; details: Homo sapiens; SK-MEL-28, melanoma; one dose 10 μM; read-out: Growth Inhibition Percentage (GI %)
SMILES,inhibition at 10 µM [1] [%],inhibition at 10 µM [2] [%],inhibition at 10 µM [3] [%],inhibition at 10 µM [4] [%],inhibition at 10 µM [5] [%],inhibition at 10 µM [6] [%],inhibition at 10 µM [7] [%],inhibition at 10 µM [8] [%],inhibition at 10 µM [9] [%],inhibition at 10 µM [10] [%],inhibition at 10 µM [12] [%],inhibition at 10 µM [13] [%],inhibition at 10 µM [15] [%],inhibition at 10 µM [16] [%],inhibition at 10 µM [17] [%],inhibition at 10 µM [18] [%],inhibition at 10 µM [19] [%],inhibition at 10 µM [20] [%],inhibition at 10 µM [21] [%],inhibition at 10 µM [22] [%],further results
"CCOC(=O)C1=C(N)N(c2ccccc2)C2=C(C(=O)CC(C)(C)C2)C1c1ccc(OC)cc1 (racemic) [8f, (±)-Ethyl2-amino-4–(4-methoxyphenyl)-7,7-dimethyl-5-oxo-1-phenyl-1,4,5,6,7,8-hexahydroquinoline-3-carboxylate]",< 10,< 10,15,14,12,18,< 10,< 10,< 10,< 10,< 10,< 10,18,< 10,< 10,14,< 10,< 10,< 10,< 10,inhibition at 10 µM [11]: < 10%; inhibition at 10 µM [14]: < 10%; inhibition at 10 µM [23]: < 10%; inhibition at 10 µM [24]: < 10%; inhibition at 10 µM [25]: < 10%; inhibition at 10 µM [26]: < 10%; inhibition at 10 µM [27]: < 10%; inhibition at 10 µM [28]: < 10%
"CCOC(=O)C1=C(N)N(c2ccccc2)C2=C(C(=O)CC(C)(C)C2)C1c1ccc(N2CCOCC2)cc1 (racemic) [8l, (±)-Ethyl 2-amino-7,7-dimethyl-4-[4-(morpholin-4-yl)phenyl]-5-oxo-1-phenyl-1,4,5,6,7,8-hexahydroquinoline-3-carboxylate]",< 10,< 10,< 10,< 10,< 10,16,< 10,< 10,< 10,< 10,< 10,< 10,< 10,< 10,< 10,< 10,< 10,< 10,< 10,< 10,inhibition at 10 µM [11]: < 10%; inhibition at 10 µM [14]: < 10%; inhibition at 10 µM [23]: < 10%; inhibition at 10 µM [24]: < 10%; inhibition at 10 µM [25]: 12%; inhibition at 10 µM [26]: < 10%; inhibition at 10 µM [27]: < 10%; inhibition at 10 µM [28]: < 10%
"CCOC(=O)C1=C(N)N(c2ccc(C)cc2)C2=C(C(=O)CC(C)(C)C2)C1c1ccccn1 (racemic) [12b, (±)-Ethyl 2-amino-7,7-dimethyl-1–(4-methylphenyl)-5-oxo-1-phenyl-4-(pyrdin-2-yl)-1,4,5,6,7,8-hexahydroquinoline-3-carboxylate]",< 10,< 10,< 10,< 10,< 10,< 10,< 10,82,< 10,< 10,19,19,< 10,< 10,< 10,< 10,14,< 10,< 10,< 10,inhibition at 10 µM [11]: < 10%; inhibition at 10 µM [14]: < 10%; inhibition at 10 µM [23]: < 10%; inhibition at 10 µM [24]: < 10%; inhibition at 10 µM [25]: < 10%; inhibition at 10 µM [26]: < 10%; inhibition at 10 µM [27]: < 10%; inhibition at 10 µM [28]: < 10%
"CCOC(=O)C1=C(N)N(c2ccc(C)cc2)C2=C(C(=O)CC(C)(C)C2)C1c1ccc([N+](=O)[O-])cc1 (racemic) [8j, (±)-Ethyl 2-amino-7,7-dimethyl-1–(4-methylphenyl)-4–(4-nitrophenyl)-5-oxo-1,4,5,6,7,8-hexahydroquinoline-3-carboxylate]",< 10,< 10,< 10,< 10,< 10,< 10,< 10,< 10,< 10,< 10,< 10,< 10,< 10,< 10,< 10,< 10,< 10,< 10,< 10,< 10,inhibition at 10 µM [14]: < 10%; inhibition at 10 µM [23]: < 10%; inhibition at 10 µM [24]: < 10%; inhibition at 10 µM [25]: < 10%; inhibition at 10 µM [26]: < 10%; inhibition at 10 µM [27]: < 10%; inhibition at 10 µM [28]: < 10%
"CCOC(=O)C1=C(N)N(c2ccccc2)C2=C(C(=O)CC(C)(C)C2)C1c1ccc([N+](=O)[O-])cc1 (racemic) [8i, (±)-Ethyl 2-amino-4–(4-nitrophenyl)-7,7-dimethyl-5-oxo-1-phenyl-1,4,5,6,7,8-hexahydroquinoline-3-carboxylate]",< 10,16,17,16,12,34,< 10,< 10,< 10,< 10,< 10,14,32,< 10,11,< 10,< 10,< 10,< 10,12,inhibition at 10 µM [11]: < 10%; inhibition at 10 µM [23]: 14%; inhibition at 10 µM [24]: < 10%; inhibition at 10 µM [25]: < 10%; inhibition at 10 µM [26]: < 10%; inhibition at 10 µM [27]: < 10%; inhibition at 10 µM [28]: < 10%
